The nature of the assay: Compound was tested for inhibition of chymotrypsin-like protease of proteasome from postmortem human liver and brain.

Bounds are passed on as bounds.

As usually defined, the IC50 is the point on the concentration scale where inhibition reaches its midpoint. `CC(C)CC(NC(=O)C(CCCN=C(N)N[N+](=O)[O-])NC(=O)C(CCCCCCCCC#N)C1CCCC1)B1OC(C)(C)C(C)(C)O1` (stereo not drawn) [Alpha-ketocarbonyl boronic ester derivative] returned an IC50 of 8 nM.
For the molecule `CC(C)CC(C=O)NC(=O)C(CCCN=C(N)N[N+](=O)[O-])NC(=O)C(CCCCCCCCN1C(=O)c2ccccc2C1=O)C1CCCC1` (stereo not drawn) [Alpha-ketocarbonyl derivative], half-maximal inhibition (IC50) was put at 2 nM.
In the case of `CC(C)CC(NC(=O)C(CCCN=C(N)N[N+](=O)[O-])NC(=O)C(CCCCCCCCC#N)C1CCCC1)C(=O)CCl` (stereo not drawn) [Alpha-ketocarbonyl derivative], the IC50 was greater than 1000 nM.

The record behind these values is BindingDB's records for doi:10.1016/0960-894X(96)00014-5 (1996).
